Results published in patent US20260364003A1, “EYE DROP MICROSUSPENSIONS OF MTOR INHIBITORS” (OCULIS OPERATIONS SARL, priority 2022, published 2026).

How the values were obtained:
[1] = Physicochemical characterization of lipid microsuspensions (pH, viscosity, osmolality, particle size); conditions: Table 9, lipid microsuspension containing the drug
Source text: The diameter of a particle, such as a microparticle of mTOR inhibitor in oil and cyclodextrin/lipid complexes, can correspond to the D50 diameter of the particle. Diameter D50 is also known as the median diameter or the medium value of the particle size distribution. Diameter D50 corresponds to the value of the particle diameter at 50% in the cumulative distribution. For example, if D50 is 5 μm, then 50% of the particles in the sample are larger than 5 μm, and 50% smaller than 5 μm. Diameter D50 is usually used to represent the particle size of a group of particles.
The diameter and/or size of a particle can be measured according to any method known to those of ordinary skill in the art. For example, the diameter D50 is measured by laser diffraction particle size analysis. […] In particular, persons of ordinary skill in this field know that the physical properties (e.g. particle size, diameter, average diameter, mean particle size, etc.) are typically evaluated/measured using such limited, typical known techniques.
In specific embodiments, the particle size is measured by laser diffraction particle size analysis according to Pharm. […]
Following is a general procedure for preparation of a non-sterile lipid microsuspension at laboratory scale and for a total batch size of 100 g:
First, appropriate quantity of castor oil containing the dissolved drug-substance (i.e., everolimus) is transferred into a glass container. Second, under stirring with a magnetic stirrer aqueous α-cyclodextrin solution is added to the container. Third, aqueous solution containing EDTA and glycerol is added. Fourth, aqueous solution of Kolliphor HS15 is added. Mixing is continued for about 10 minutes before the stirring bar is removed and the suspension formed mixed with a high-shear homogenizer probe (Ultra-Turrax® T25 homogenizer, IKA-Werke, Germany, with probe IKA-S-25N-18G) operated at 8,000 RPM for about 10 minutes. […] The pH is adjusted to 5.3±0.1 with concentrated hydrochloric acid solution and/or sodium hydroxide solution. Finally, if needed, purified water is added to adjust the final weight of the sample to 100%.
The mixture obtained was homogenized for 10 minutes at 12,000 rpm using Ultra-Turrax® high shear homogenizer with S25N-18G probe at 12,000 rpm for 10 minutes. […] The lipid microsuspension formed was stirred by magnetic stirrer for 30 minutes at room temperature. Finally, the pH was adjusted by addition of hydrochloric acid and/or sodium hydroxide. […]

[2] = Table 9; cited from earlier work
[3] = cited from earlier work; for chemical stability of derivative: sirolimus derivatives
[4] = from the microemulsion; cited from earlier work
[5] = room temperature; cited from earlier work
[6] = Phase-solubility of everolimus in aqueous cyclodextrin solutions; assay type: physicochemical; conditions: pure aqueous cyclodextrin solutions, 25 °C
Procedure: Everolimus was added to each cyclodextrin solution in excess, the samples were continuously agitated on a magnetic stirrer for 24 hours.

| SMILES | Osmolality [1] [mOsmol/kg] | Particle size Dx(10) [1] [μm] | Particle size Dx(50) [1] [μm] | Particle size Dx(90) [1] [μm] | Viscosity at 15 rpm [1] [cP] | pH [1] | Drug LogP [2] | stability in microemulsion eye drops ([3]; microemulsion eye drops containing about 25% water) | topical bioavailability [4] | solubility in water [5] | chemical stability of derivative [3] | affinity for everolimus [6] |
| --- | --- | --- | --- | --- | --- | --- | --- | --- | --- | --- | --- | --- |
| C[C@@H]1C[C@H]2[C@@H]3CCC4=CC(=O)C=C[C@]4(C)[C@@]3(F)[C@@H](O)C[C@]2(C)[C@@]1(O)C(=O)CO [Dexamethasone, dexamethasone] | 297 | 1.4 | 4.6 | 16 | 17.7 | 6.4 | 1.9 | – | – | – | – | – |
| CCOC(=O)O[C@]1(C(=O)OCCl)CC[C@H]2[C@@H]3CCC4=CC(=O)C=C[C@]4(C)[C@H]3[C@@H](O)C[C@@]21C [Loteprednol etabonate, loteprednol etabonate] | 282 | 1.5 | 6.2 | 24 | 16.1 | 6.5 | 3.9 | – | – | – | – | – |
| CO[C@H]1C[C@@H]2CC[C@@H](C)[C@@](O)(O2)C(=O)C(=O)N2CCCC[C@H]2C(=O)O[C@H]([C@H](C)C[C@@H]2CC[C@@H](O)[C@H](OC)C2)CC(=O)[C@H](C)/C=C(\C)[C@@H](O)[C@@H](OC)C(=O)[C@H](C)C[C@H](C)/C=C/C=C/C=C/1C [Sirolimus, sirolimus] | 309 | 1.5 | 5.7 | 25 | 16.5 | 5.9 | 6.0 | stable | very low | – | – | – |
| C=CC[C@@H]1/C=C(\C)C[C@H](C)C[C@H](OC)[C@H]2O[C@@](O)(C(=O)C(=O)N3CCCC[C@H]3C(=O)O[C@H](/C(C)=C/[C@@H]3CC[C@@H](O)[C@H](OC)C3)[C@H](C)[C@@H](O)CC1=O)[C@H](C)C[C@@H]2OC [Tacrolimus, tacrolimus] | 304 | 1.5 | 5.3 | 22 | 15.7 | 5.0 | – | – | – | – | – | – |
| CO[C@H]1C[C@@H]2CC[C@@H](C)[C@@](O)(O2)C(=O)C(=O)N2CCCC[C@H]2C(=O)O[C@H]([C@H](C)C[C@@H]2CC[C@@H](OC(=O)C(C)(CO)CO)[C@H](OC)C2)CC(=O)[C@H](C)/C=C(\C)[C@@H](O)[C@@H](OC)C(=O)[C@H](C)C[C@H](C)/C=C/C=C/C=C/1C [Temsirolimus, 42-[3-hydroxy-2-(hydroxymethyl)-2-methylpropanoate]-rapamycin] | – | – | – | – | – | – | – | – | – | about 7 mg/mL | do not improve the chemical stability | – |
| CO[C@H]1C[C@@H]2CC[C@@H](C)[C@@](O)(O2)C(=O)C(=O)N2CCCC[C@H]2C(=O)O[C@H]([C@H](C)C[C@@H]2CC[C@@H](OP(C)(C)=O)[C@H](OC)C2)CC(=O)[C@H](C)/C=C(\C)[C@@H](O)[C@@H](OC)C(=O)[C@H](C)C[C@H](C)/C=C/C=C/C=C/1C [deforolimus, 42-(dimethylphosphinate)-rapamycin] | – | – | – | – | – | – | – | – | – | about 7 mg/mL | do not improve the chemical stability | – |
| OC[C@H]1O[C@@H]2O[C@H]3[C@H](O)[C@@H](O)[C@@H](O[C@H]4[C@H](O)[C@@H](O)[C@@H](O[C@H]5[C@H](O)[C@@H](O)[C@@H](O[C@H]6[C@H](O)[C@@H](O)[C@@H](O[C@H]7[C@H](O)[C@@H](O)[C@@H](O[C@H]1[C@H](O)[C@H]2O)O[C@@H]7CO)O[C@@H]6CO)O[C@@H]5CO)O[C@@H]4CO)O[C@@H]3CO [α-cyclodextrin] | – | – | – | – | – | – | – | – | – | – | – | lowest affinity |
